Data on four molecules can be found in US12365668B2, “Aminopyrazine diol compounds as PI3K-y inhibitors” (Incyte Corporation, priority 2018, dated 2025).

SMILES strings stand for the structures. Read-outs that look alike come from different tables or passages of the source.

In test [1] the target is PI3Kγ (p110γ) Recombinant Human Protein (Homo sapiens (Human), UniProt P48736). Briefly: PI3K-γ Scintillation Proximity Assay. Conditions: 20 μM PIP2, 2 μM ATP, SPA. Type of test: biochemical. From the text:
Example B. PI3K-γ Scintillation Proximity Assay Materials: [γ-^33P]ATP (10 mCi/mL) and Wheat Germ Agglutinin (WGA) YSi SPA Scintillation Beads was purchased from Perkin Elmer (Waltham, MA). Lipid kinase substrate, D-myo-Phosphatidylinositol 4,5-bisphosphate (PtdIns(4,5)P2)D (+)-sn-1,2-di-O-octanoylglyceryl, 3-O-phospho linked (PIP2), CAS 204858-53-7, was purchased from Echelon Biosciences (Salt Lake City, UT). PI3Kγ (p110γ) Recombinant Human Protein was purchased from Life technology (Grand Island, NY). ATP, MgCl2, DTT, EDTA, MOPS and CHAPS were purchased from Sigma Aldrich (St. Louis, MO). The kinase reaction was conducted in polystyrene 384-well Greiner Bio-one white plate from Thermo Fisher Scientific in a final volume of 25 μL. Inhibitors were first diluted serially in DMSO and added to the plate wells before the addition of other reaction components. The final concentration of DMSO in the assay was 2%. The PI3Kγ assay was carried out at room temperature in 20 mM MOPS, pH 6.7, 10 mM MgCl2, 5 mM DTT and CHAPS 0.03%. Reactions were initiated by the addition of ATP, the final reaction mixture consisted of 20 μM PIP2, 2 μM ATP, 0.5 μCi [γ-^33P] ATP, 13 nM PI3Kγ. Reactions were incubated for 120 min and terminated by the addition of 40 μL SPA beads suspended in quench buffer: 163 mM potassium phosphate pH 7.8, 20% glycerol, 25 mM EDTA. The final concentration of SPA beads is 1.0 mg/mL. After the plate sealing, plates were shaken overnight at room temperature and centrifuged at 1500 rpm for 10 min, the radioactivity of the product was determined by scintillation counting on Topcount (Perkin-Elmer). IC50 determination was performed by fitting the curve of percent of the solvent control activity versus the log of the inhibitor concentration using the GraphPad Prism 6.0 software.
(In a scintillation proximity assay essentially only radioactivity close to the scintillant gives light.)

In test [2] the target is PI3Kδ (p110δ/p85α) Recombinant Human Protein (Homo sapiens (Human), UniProt O00329). Nature of the test: PI3Kδ Scintillation Proximity Assay. Conditions: 20 μM PIP2, 2 μM ATP, SPA. Type of test: biochemical. From the text: Example C. PI3Kδ Scintillation Proximity Assay Materials: [γ-^33P]ATP (10 mCi/mL) and Wheat Germ Agglutinin (WGA) YSi SPA Scintillation Beads was purchased from Perkin Elmer (Waltham, MA). Lipid kinase substrate, D-myo-Phosphatidylinositol 4,5-bisphosphate (PtdIns(4,5)P2)D (+)-sn-1,2-di-O-octanoylglyceryl, 3-O-phospho linked (PIP2), CAS 204858-53-7, was purchased from Echelon Biosciences (Salt Lake City, UT). PI3Kδ (p110δ/p85α) Recombinant Human Protein was purchased from Eurofins (St Charles, MO). ATP, MgCl2, DTT, EDTA, MOPS and CHAPS were purchased from Sigma Aldrich (St. Louis, MO). The kinase reaction was conducted in polystyrene 384-well Greiner Bio-one white plate from Thermo Fisher Scientific in a final volume of 25 μL. Inhibitors were first diluted serially in DMSO and added to the plate wells before the addition of other reaction components. The final concentration of DMSO in the assay was 2%. The PI3Kδ assay was carried out at room temperature in 20 mM MOPS, pH 6.7, 10 mM MgCl2, 5 mM DTT and CHAPS 0.03%. Reactions were initiated by the addition of ATP, the final reaction mixture consisted of 20 μM PIP2, 2 μM ATP, 0.5 μCi [γ-^33P] ATP, 3.4 nM PI3Kδ. Reactions were incubated for 120 min and terminated by the addition of 40 μL SPA beads suspended in quench buffer: 163 mM potassium phosphate pH 7.8, 20% glycerol, 25 mM EDTA. The final concentration of SPA beads is 1.0 mg/mL. After the plate sealing, plates were shaken overnight at room temperature and centrifuged at 1500 rpm for 10 min, the radioactivity of the product was determined by scintillation counting on Topcount (PerkinElmer). IC50 determination was performed by fitting the curve of percent of the solvent control activity versus the log of the inhibitor concentration using the GraphPad Prism 6.0 software.

The subject of test [3] is Phosphorylated Ribosomal Protein S6 (RPS6) in THP-1 cells. Briefly: THP-1 RPS6 ELISA Assay. Type of test: cell-based, Human. The note with it: serum starved, 2 hours compound, 10 nM MCP-1 for 15 minutes, Phospho-RPS6 ELISA, read-out: PI3Kγ_THP1_RPS6_ELISA IC50. How it is done: Example A. THP-1 RPS6 ELISA Assay
To measure the Phosphorylated Ribosomal Protein S6 (RPS6) in cell lysates, THP-1 cells (Human Acute Monocytic Leukemia) are purchased from ATCC (Manassas, VA) and maintained in RPMI with 10% FBS (Gibco/Life Technologies, Carlsbad, CA). For the assay, THP-1 cells are serum starved overnight in RPMI, then plated in RPMI (2×10^5 cells/well in 90 μL) into 96-well flat-bottom tissue culture treated plates (Corning, Corning, NY), in the presence or absence of a concentration range of test compounds. Covered plates are incubated for 2 hours at 37° C., 5% CO2 then treated with or without 10 nM MCP-1(MYBioSource, San Diego, CA) for 15 minutes at 37° C., 5% CO2. Plates are centrifuged at 1600 RPM and supernatants are removed. Cells are lysed in Lysis Buffer (Cell Signaling, Danvers, MA) with Protease Inhibitor (Calbiochem/EMD, Germany), PMSF (Sigma, St Louis MO), HALTS (Thermo Fisher, Rockford, IL) for 30 min on wet ice. Cell lysates are frozen at −80° C. before testing. The lysates are tested in the Human/Mouse/Rat Phospho-RPS6 ELISA (R&D Systems, Inc. Minn, MN). The plate is measured using a microplate reader (SpectraMax M5—Molecular Devices, LLC Sunnyvale, CA) set to 450 nm with a wavelength correction of 540. IC50 determination is performed by fitting the curve of inhibitor percent inhibition versus the log of the inhibitor concentration using the GraphPad Prism 5.0 software.
For orientation: An ELISA detects its analyte on a solid surface through an enzyme-linked reagent.

Sequence of PI3Kδ (p110δ/p85α) Recombinant Human Protein (O00329 whole entry): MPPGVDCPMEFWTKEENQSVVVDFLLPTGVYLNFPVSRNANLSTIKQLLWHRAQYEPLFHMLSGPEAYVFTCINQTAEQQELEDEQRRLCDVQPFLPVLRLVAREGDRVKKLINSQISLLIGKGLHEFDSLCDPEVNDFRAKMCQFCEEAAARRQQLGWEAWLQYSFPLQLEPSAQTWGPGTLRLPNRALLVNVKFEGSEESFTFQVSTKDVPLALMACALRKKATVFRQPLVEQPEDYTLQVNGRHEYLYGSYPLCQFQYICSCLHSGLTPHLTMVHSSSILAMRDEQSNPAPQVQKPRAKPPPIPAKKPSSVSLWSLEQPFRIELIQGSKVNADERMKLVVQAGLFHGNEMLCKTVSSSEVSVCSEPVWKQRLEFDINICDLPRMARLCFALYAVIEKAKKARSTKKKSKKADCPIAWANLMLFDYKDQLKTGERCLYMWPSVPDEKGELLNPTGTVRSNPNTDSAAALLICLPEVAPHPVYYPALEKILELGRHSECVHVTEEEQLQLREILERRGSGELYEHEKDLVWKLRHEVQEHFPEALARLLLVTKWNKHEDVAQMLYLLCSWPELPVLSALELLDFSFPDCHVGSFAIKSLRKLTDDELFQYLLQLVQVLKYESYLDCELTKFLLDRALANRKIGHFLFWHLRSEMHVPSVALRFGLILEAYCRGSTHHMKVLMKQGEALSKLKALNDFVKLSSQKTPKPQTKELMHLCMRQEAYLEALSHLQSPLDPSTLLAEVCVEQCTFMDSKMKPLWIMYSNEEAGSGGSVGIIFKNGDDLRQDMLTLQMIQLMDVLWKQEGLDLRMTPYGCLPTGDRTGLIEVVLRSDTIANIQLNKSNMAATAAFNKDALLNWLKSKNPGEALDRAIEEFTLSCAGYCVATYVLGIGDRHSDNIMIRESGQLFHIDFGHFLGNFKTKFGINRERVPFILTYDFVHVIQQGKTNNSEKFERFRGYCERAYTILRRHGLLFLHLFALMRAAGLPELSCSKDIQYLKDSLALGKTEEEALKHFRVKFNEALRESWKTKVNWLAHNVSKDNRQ
Sequence of PI3Kδ (p110δ/p85α) Recombinant Human Protein (P27986 whole entry partner): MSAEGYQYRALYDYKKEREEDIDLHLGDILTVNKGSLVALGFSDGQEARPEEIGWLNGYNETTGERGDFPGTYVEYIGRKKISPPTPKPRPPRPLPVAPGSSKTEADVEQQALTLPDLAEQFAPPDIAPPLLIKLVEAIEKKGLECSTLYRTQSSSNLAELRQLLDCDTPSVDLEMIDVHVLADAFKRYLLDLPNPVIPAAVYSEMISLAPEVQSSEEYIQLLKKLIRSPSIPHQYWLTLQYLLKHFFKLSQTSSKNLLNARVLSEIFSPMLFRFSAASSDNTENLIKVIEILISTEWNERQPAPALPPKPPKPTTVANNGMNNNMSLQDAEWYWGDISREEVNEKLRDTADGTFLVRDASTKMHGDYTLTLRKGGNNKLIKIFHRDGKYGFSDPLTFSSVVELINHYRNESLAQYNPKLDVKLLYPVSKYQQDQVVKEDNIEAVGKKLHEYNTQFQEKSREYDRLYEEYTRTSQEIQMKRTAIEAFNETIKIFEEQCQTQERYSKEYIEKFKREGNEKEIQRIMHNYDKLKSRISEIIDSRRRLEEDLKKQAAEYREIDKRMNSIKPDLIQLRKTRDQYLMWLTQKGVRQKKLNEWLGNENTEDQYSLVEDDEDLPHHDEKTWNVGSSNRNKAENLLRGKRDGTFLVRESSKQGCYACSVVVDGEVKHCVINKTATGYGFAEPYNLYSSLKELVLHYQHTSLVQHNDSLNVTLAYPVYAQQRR
Sequence of PI3Kγ (p110γ) Recombinant Human Protein (P48736 whole entry): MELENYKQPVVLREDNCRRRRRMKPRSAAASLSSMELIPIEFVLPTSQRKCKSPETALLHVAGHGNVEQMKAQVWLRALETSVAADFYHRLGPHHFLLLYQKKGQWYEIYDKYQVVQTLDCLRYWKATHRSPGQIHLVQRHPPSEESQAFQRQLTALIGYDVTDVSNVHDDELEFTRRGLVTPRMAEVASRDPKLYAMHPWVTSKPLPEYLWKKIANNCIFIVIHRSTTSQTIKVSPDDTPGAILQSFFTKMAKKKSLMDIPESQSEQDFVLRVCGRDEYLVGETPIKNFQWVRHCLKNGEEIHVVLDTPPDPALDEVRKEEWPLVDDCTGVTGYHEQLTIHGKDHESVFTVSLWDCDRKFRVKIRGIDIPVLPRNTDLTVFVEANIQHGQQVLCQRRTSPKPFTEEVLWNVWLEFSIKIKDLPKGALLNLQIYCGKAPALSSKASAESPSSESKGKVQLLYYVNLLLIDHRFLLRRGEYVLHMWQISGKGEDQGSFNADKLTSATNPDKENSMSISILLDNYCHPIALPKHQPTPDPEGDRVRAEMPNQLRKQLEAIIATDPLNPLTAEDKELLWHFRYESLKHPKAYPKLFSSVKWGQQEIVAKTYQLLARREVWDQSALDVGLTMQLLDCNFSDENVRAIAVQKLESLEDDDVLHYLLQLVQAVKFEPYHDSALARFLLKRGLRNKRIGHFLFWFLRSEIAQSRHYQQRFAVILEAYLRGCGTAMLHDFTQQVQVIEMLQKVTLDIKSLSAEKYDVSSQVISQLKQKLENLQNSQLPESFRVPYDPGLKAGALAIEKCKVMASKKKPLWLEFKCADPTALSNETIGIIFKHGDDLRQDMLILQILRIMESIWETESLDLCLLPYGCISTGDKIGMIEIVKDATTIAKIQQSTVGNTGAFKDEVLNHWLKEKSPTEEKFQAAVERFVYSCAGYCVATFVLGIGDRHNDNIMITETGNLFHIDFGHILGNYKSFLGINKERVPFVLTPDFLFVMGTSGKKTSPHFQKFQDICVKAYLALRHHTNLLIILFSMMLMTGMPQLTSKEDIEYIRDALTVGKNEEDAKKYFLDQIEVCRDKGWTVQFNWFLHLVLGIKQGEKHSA

As for `Cc1ccc(C(O)(CO)C(F)(F)F)cc1-c1cnc(N)c(-n2cncn2)n1` (single isomer, unassigned) [Example 15, 2-(3-(5-Amino-6-(1H-1,2,4-triazol-1-yl)pyrazin-2-yl)-4-methylphenyl)-3,3,3-trifluoropropane-1,2-diol], the half-inhibitory concentration (IC50) (in general, the concentration needed to halve the response being measured) in test [1] was ≤ 100 nM; in test [2], ≤ 100 nM; in test [3] (Homo sapiens), 100 to 500 nM.

With `Cc1ccc(C(O)(CO)C(F)(F)F)cc1-c1cnc(N)c(-n2nccn2)n1` (stereo not shown) [Example 14, 2-(3-(5-Amino-6-(1H-1,2,3-triazol-2-yl)pyrazin-2-yl)-4-methylphenyl)-3,3,3-trifluoropropane-1,2-diol], the concentration for half-maximal inhibition (IC50) was ≤ 100 nM in test [1], ≤ 100 nM in test [2] and < 100 nM in test [3].

On to `Cc1ccc(C(O)(CO)C(F)(F)F)cc1-c1cnc(N)c(C2CN(S(=O)(=O)c3ccn(C)n3)C2)n1` (stereo not shown) [Example 23, 2-(3-(5-Amino-6-(1-((1-methyl-1H-pyrazol-3-yl)sulfonyl)azetidin-3-yl)pyrazin-2-yl)-4-methylphenyl)-3,3,3-trifluoropropane-1,2-diol], for which the IC50 in test [2] and in test [3] (Homo sapiens) was 100 to 500 nM throughout.

`Cc1ccc([C@](O)(CO)C(F)F)cc1-c1cnc(N)c(C(=O)N2CCC[C@@H]2CO)n1` [Example 45, (3-Amino-6-(5-((S)-1,1-difluoro-2,3-dihydroxypropan-2-yl)-2-methylphenyl)pyrazin-2-yl)((R)-2-(hydroxymethyl)pyrrolidin-1-yl)methanone]: the values for the IC50 in test [2] and in test [3] were 500 to 2000 nM and 100 to 500 nM, respectively.
